Assay results published in PubChem BioAssay AID1963846 (Molecular Pharmacology Branch, DTP, NCI, 2024).
Several values for one entry are separate records, joined by “and”; a condition that tells them apart may be missing. Equal values may be shown once.

System: 454973-116-R2-J3-PDC complex spheroid viability
Experiment: Anticancer human tumor 454973-116-R2-J3-PDC patient-derived pancreatic carcinoma cell line growth inhibition [POLQ]
Settings: for viability, T/C: stronger effect = lower value
Description: Multicellular complex tumor spheroid response to Polymerase (POL) inhibitors (novobiocin, ART-558, RP6685) in combination with a variety of drugs and investigational agents in selected tumor cell lines
The POL inhibitors (novobiocin, ART-558, and RP6685) were evaluated both individually and in combination with standard of care and investigational anticancer small molecules within a complex spheroid model of solid tumors. . Complex spheroids include a stromal component modeled by human endothelial cells (HUVEC) and fibroblasts modeled by human mesenchymal stem cells (MSCs). The concentration ranges selected for each drug and investigational agent were based upon clinically achievable concentrations if the clinical Cmax of the agent was known.
Compounds. The drugs and investigational agents: novobiocin (NSC847541), ART-558 (NSC835418), RP-6685 (NSC848927), peposertib (NSC802822), ceralasertib (NSC780249), elimusertib (NSC800525), camonsertib (NSC841442), AZD-1390 (NSC803789), olaparib (NSC753686), talazoparib (NSC767125), rucaparib (NSC756644), sotorasib (NSC818433), MRTX-1133 (NSC836407), SN-38 (NSC673596), topotecan (NSC609699), epotoside (NSC141540), doxorubicin (NSC123127), gemcitabine (NSC613327), 5-fluorouracil (NSC19893), paclitaxel (NSC125973), vemurafenib (NSC761431), MSA-2 (NSC828583), SN-011 (NSC837082), adavosertib (NSC754352), prexasertib (NSC758257), carboplatin (NSC241240) and oxaliplatin (NSC266046), were obtained from the National Cancer Institute (NCI) Developmental Therapeutics Program Chemical Repository (21). The FDA-approved anticancer drug set is available from the Developmental Therapeutics Program at https://dtp.cancer.gov/organization/dscb/obtaining/. […] The stock solutions were prepared in dimethyl sulfoxide (DMSO, Sigma-Aldrich, St. Louis, MO, cat. D2650), except for the platinum compounds which were prepared in saline (Quality Biological, Gaithersburg, MD, cat. 114-055-101), at 800-fold the tested concentration and stored at -70 degrees C prior to their use. All drugs and investigational agents were tested over a range starting from a high concentration at or near the clinical Cmax and decreasing in half-log increments. If the clinical Cmax for an agent had not been determined, the highest concentration tested was 10 microM, except for SN-38, which was tested at a high concentration of 1 microM.
Cell Culture. All cells were maintained in an incubator at 37 degrees C and 5% CO2 with 95% humidity. The PDC lines were cultured according to standard operating procedures established by the NCI PDMR (https://pdmr.cancer.gov). Table 3 of the manuscript, lists the cell lines along with the number of the three cell types plated to form the mct-spheroids and media for tumor cell growth. After thawing, all PDC lines, except 997537-175-T-J1-PDC and 415267-285-R-J2-PDC, were cultured in Matrigel-coated flasks prepared with a working solution of 1X Ham's F-12 nutrient mix, without supplementation (Thermo Fisher Scientific, cat. 11765054), 100 U/mL penicillin-streptomycin (Thermo Fisher Scientific, cat. 15140122), and 2.5% Matrigel (Corning Inc., Corning, NY, cat. 354248) for the first three passages. The two PDC lines 997537-175-T-J1-PDC and 415267-285-R-J2-PDC were cultured on uncoated flasks. The 857933-349-R-J2-PDC line was cultured in 6C/Colon 1B media containing advanced DMEM/F-12 (Thermo Fisher Scientific, cat. 12634028), 10 mM HEPES (Thermo Fisher Scientific, cat. 15630080), 1X GlutaMAX supplement (Thermo Fisher Scientific, cat. 35050061), 0.1 mg/mL primocin (InvivoGen, San Diego, CA, cat. ant-pm-2), 10% defined fetal bovine serum, heat inactivated (HyClone Laboratories Inc., Logan, UT, cat. SH30070.03HI), 50% L-WRN conditioned media (ATCC, cat. CRL-3276), 1.25 mM N-Acetyl-L-cysteine (Sigma-Aldrich, cat. A9165), 10 mM nicotinamide (Sigma-Aldrich, cat. N0636), 1X B-27 supplement (Thermo Fisher Scientific, cat. 17504044), 1X N-2 supplement (Thermo Fisher Scientific, cat. […]
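Note: spheroids exposed to drugs for seven days before measurement.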
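Throughout, for viability, T/C: percent viability relative to DMSO vehicle control wells taken as 100%.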

SMILES: COc1cccc2c1C(=O)c1c(O)c3c(c(O)c1C2=O)CC(O)(C(=O)CO)CC3OC1CC(N)C(O)C(C)O1 (stereo not given)
- viability, T/C (compound 0.0316 µM): 73.1% and 56.1% and 76.5%
- viability, T/C (compound 0.1 µM): 29.5% and 17.3% and 24.4%
- viability, T/C (compound 0.316 µM): 22.2% and 15.9% and 20.4%
- viability, T/C (compound 1 µM): 9.63% and 3.16% and 7.36%
- viability, T/C (compound 3.16 µM): 0.59% and 0.89% and 0.65%
- viability, T/C (compound 10 µM): 0.49% and 0.17% and 1.33%
- IC50 (curve of compound): 62.6 nM and 37.5 nM and 60.1 nM

SMILES: Cn1ncnc1[C@H]1c2n[nH]c(=O)c3cc(F)cc(c23)N[C@@H]1c1ccc(F)cc1 + Nc1ccc(C#CCN(C(=O)Cc2ncc(C(F)(F)F)cc2C(F)(F)F)c2ccc(F)cc2)nn1
- IC50 (curve of first compound, second compound 0.0316 µM): > 100 nM
- IC50 (curve of first compound, second compound 0.1 µM): > 100 nM
- IC50 (curve of first compound, second compound 0.316 µM): > 100 nM
- IC50 (curve of first compound, second compound 1 µM): > 100 nM
- IC50 (curve of first compound, second compound 3.16 µM): > 100 nM
- IC50 (curve of first compound, second compound 10 µM): > 100 nM
- viability, T/C (second compound 0.0316 µM, first compound 0.000316 µM): 107%
- viability, T/C (second compound 0.0316 µM, first compound 0.001 µM): 93.9%
- viability, T/C (second compound 0.0316 µM, first compound 0.00316 µM): 98%
- viability, T/C (second compound 0.0316 µM, first compound 0.01 µM): 90.9%
- viability, T/C (second compound 0.0316 µM, first compound 0.0316 µM): 93.6%
- viability, T/C (second compound 0.0316 µM, first compound 0.1 µM): 82.3%
- viability, T/C (second compound 0.1 µM, first compound 0.000316 µM): 108%
- viability, T/C (second compound 0.1 µM, first compound 0.001 µM): 104%
- viability, T/C (second compound 0.1 µM, first compound 0.00316 µM): 96.7%
- viability, T/C (second compound 0.1 µM, first compound 0.01 µM): 98.9%
- viability, T/C (second compound 0.1 µM, first compound 0.0316 µM): 97.2%
- viability, T/C (second compound 0.1 µM, first compound 0.1 µM): 79.9%
- viability, T/C (second compound 0.316 µM, first compound 0.000316 µM): 105%
- viability, T/C (second compound 0.316 µM, first compound 0.001 µM): 102%
- viability, T/C (second compound 0.316 µM, first compound 0.00316 µM): 102%
- viability, T/C (second compound 0.316 µM, first compound 0.01 µM): 92.3%
- viability, T/C (second compound 0.316 µM, first compound 0.0316 µM): 101%
- viability, T/C (second compound 0.316 µM, first compound 0.1 µM): 89.2%
- viability, T/C (second compound 1 µM, first compound 0.000316 µM): 109%
- viability, T/C (second compound 1 µM, first compound 0.001 µM): 105%
- viability, T/C (second compound 1 µM, first compound 0.00316 µM): 108%
- viability, T/C (second compound 1 µM, first compound 0.01 µM): 105%
- viability, T/C (second compound 1 µM, first compound 0.0316 µM): 91.6%
- viability, T/C (second compound 1 µM, first compound 0.1 µM): 82.9%
- viability, T/C (second compound 3.16 µM, first compound 0.000316 µM): 111%
- viability, T/C (second compound 3.16 µM, first compound 0.001 µM): 116%
- viability, T/C (second compound 3.16 µM, first compound 0.00316 µM): 102%
- viability, T/C (second compound 3.16 µM, first compound 0.01 µM): 100%
- viability, T/C (second compound 3.16 µM, first compound 0.0316 µM): 96.3%
- viability, T/C (second compound 3.16 µM, first compound 0.1 µM): 84.7%
- viability, T/C (second compound 10 µM, first compound 0.000316 µM): 112%
- viability, T/C (second compound 10 µM, first compound 0.001 µM): 109%
- viability, T/C (second compound 10 µM, first compound 0.00316 µM): 117%
- viability, T/C (second compound 10 µM, first compound 0.01 µM): 107%
- viability, T/C (second compound 10 µM, first compound 0.0316 µM): 113%
- viability, T/C (second compound 10 µM, first compound 0.1 µM): 95.8%

SMILES: CC[C@@]1(O)C(=O)OCc2c1cc1n(c2=O)Cc2cc3c(CN(C)C)c(O)ccc3nc2-1
- viability, T/C (compound 0.000316 µM): 120% and 108% and 112%
- viability, T/C (compound 0.001 µM): 101% and 93.5% and 105%
- viability, T/C (compound 0.00316 µM): 97% and 95.4% and 103%
- viability, T/C (compound 0.01 µM): 81.7% and 76.8% and 84.1%
- viability, T/C (compound 0.0316 µM): 20% and 13.8% and 24.2%
- viability, T/C (compound 0.1 µM): 17.1% and 10.5% and 14.8%
- IC50 (curve of compound): 18.2 nM and 16.3 nM and 19.3 nM

SMILES: COc1cc(C2c3cc4c(cc3C(OC3OC5COC(C)OC5C(O)C3O)C3COC(=O)C23)OCO4)cc(OC)c1O (stereo not given)
- viability, T/C (compound 0.0316 µM): 102% and 100% and 103%
- viability, T/C (compound 0.1 µM): 94.6% and 100% and 97.6%
- viability, T/C (compound 0.316 µM): 87.3% and 85.4% and 94.8%
- viability, T/C (compound 1 µM): 64.4% and 47.4% and 68.4%
- viability, T/C (compound 3.16 µM): 27% and 15.3% and 23.4%
- viability, T/C (compound 10 µM): 11% and 6.79% and 10.2%
- IC50 (curve of compound): 1530 nM and 921 nM and 1600 nM

SMILES: CC1COCCN1c1cc(-c2ccnn2C)c2ccnc(-c3ccn[nH]3)c2n1 (stereo not given)
- viability, T/C (compound 0.0316 µM): 91.5% and 96.9% and 97.4%
- viability, T/C (compound 0.1 µM): 75.7% and 73.8% and 55.7%
- viability, T/C (compound 0.316 µM): 42.8% and 37.2% and 20.8%
- viability, T/C (compound 1 µM): 20.7% and 22.5% and 12.6%
- viability, T/C (compound 3.16 µM): 21.3% and 24.4% and 12.3%
- viability, T/C (compound 10 µM): 25% and 30% and 17.2%
- IC50 (curve of compound): 238 nM and 208 nM and 121 nM
